Target: Sigma non-opioid intracellular receptor 1 (Cavia porcellus)
Assay: Tested in vitro for the concentration required to inhibit specific [3H]DTG radioligand binding to sigma receptor on guinea pig brain membrane

CCc1cccc(N=C(N)Nc2cccc(CC)c2)c1
IC50: 8 nM

CC(C)c1ccc(N=C(N)Nc2ccc(C(C)C)cc2)cc1
IC50: 242 nM

NC(=Nc1ccc(Br)cc1)Nc1ccc(Br)cc1
IC50: 33 nM

CC(C)c1cccc(N=C(N)Nc2cccc(C(C)C)c2)c1
IC50: 96 nM

NC(=Nc1cccc2ccccc12)Nc1cccc2ccccc12
IC50: 165 nM

N=C(N1CCc2ccccc21)N1CCc2ccccc21 [C-[Bis-(2,3-dihydro-indol-1-yl)]-methyleneamine]
IC50: 7180 nM

CN(C(N)=Nc1cccc(N)c1)c1cccc2ccccc12 [N'-(3-Amino-phenyl)-N-methyl-N-naphthalen-1-yl-guanidine]
IC50: 13000 nM

CCc1cccc(N=C(N)N(C)c2cccc3ccccc23)c1 [N'-(3-Ethyl-phenyl)-N-methyl-N-naphthalen-1-yl-guanidine]
IC50: 1000 nM

COc1cccc(N=C(N)Nc2cccc(OC)c2)c1 [N,N'-Bis-(3-methoxy-phenyl)-guanidine]
IC50: 351 nM

NC(=Nc1cccc2c1CCC2)Nc1cccc2c1CCC2 [N,N'-Di-indan-4-yl-guanidine]
IC50: 29 nM

NC(=Nc1cccc2ccccc12)N(c1ccccc1)c1cccc2ccccc12 [N,N'-Di-naphthalen-1-yl-N-phenyl-guanidine]
IC50: 7930 nM

NC(=Nc1ccc2ccccc2c1)Nc1ccc2ccccc2c1 [N,N'-Di-naphthalen-2-yl-guanidine]
IC50: 92 nM

CN(C(=N)N(C)c1cccc2ccccc12)c1cccc2ccccc12 [N,N'-Dimethyl-N,N'-di-naphthalen-1-yl-guanidine]
IC50: 10700 nM

NC(=Nc1cccc2ccccc12)Nc1ccccc1I [N-(2-Iodo-phenyl)-N'-naphthalen-1-yl-guanidine]
IC50: 40 nM

CC(C)c1ccccc1N=C(N)Nc1cccc2ccccc12 [N-(2-Isopropyl-phenyl)-N'-naphthalen-1-yl-guanidine]
IC50: 91 nM

CN(C(N)=Nc1cccc2ccccc12)c1cccc(N)c1 [N-(3-Amino-phenyl)-N-methyl-N'-naphthalen-1-yl-guanidine]
IC50: 2700 nM

CN(C(N)=Nc1cccc2ccccc12)c1cccc(N=[N+]=[N-])c1 [N-(3-Azido-phenyl)-N-methyl-N'-naphthalen-1-yl-guanidine]
IC50: 3020 nM

CCc1cccc(N=C(N)N2CCC(c3ccccc3)CC2)c1 [N-(3-Ethyl-phenyl)-4-phenyl-piperidine-1-carboxamidine]
IC50: 60 nM

CCc1cccc(NC(N)=Nc2cccc3ccccc23)c1 [N-(3-Ethyl-phenyl)-N'-naphthalen-1-yl-guanidine]
IC50: 54 nM

CCc1cccc(N(C)C(=N)N(C)c2cccc3ccccc23)c1 [N-(3-Ethyl-phenyl)-N,N'-dimethyl-N'-naphthalen-1-yl-guanidine]
IC50: 1210 nM

CCN(C(N)=Nc1cccc2ccccc12)c1cccc2ccccc12 [N-Ethyl-N,N'-di-naphthalen-1-yl-guanidine]
IC50: 6130 nM

CCc1cccc(N(CC)C(N)=Nc2cccc3ccccc23)c1 [N-Ethyl-N-(3-ethyl-phenyl)-N'-naphthalen-1-yl-guanidine]
IC50: 2190 nM

CN(/C(N)=N/c1cccc2ccccc12)c1cccc([N+](=O)[O-])c1 [N-Methyl-N'-naphthalen-1-yl-N-(3-nitro-phenyl)-guanidine]
IC50: 6260 nM

CN(C(N)=Nc1cccc2ccccc12)c1ccccc1 [N-Methyl-N'-naphthalen-1-yl-N-phenyl-guanidine]
IC50: 2900 nM

Cc1cccc(N=C(N)N(C)c2cccc(C)c2)c1 [N-Methyl-N,N'-di-m-tolyl-guanidine]
IC50: 247 nM

CN(C(=N)N(c1ccccc1)c1cccc2ccccc12)c1cccc2ccccc12 [N-Methyl-N,N'-di-naphthalen-1-yl-N'-phenyl-guanidine]
IC50: 11000 nM

CN(C(N)=Nc1cccc2ccccc12)c1cccc2ccccc12 [N-Methyl-N,N'-di-naphthalen-1-yl-guanidine]
IC50: 4800 nM

C/[N+](=C(/[NH-])Nc1cccc([N+](=O)[O-])c1)c1cccc2ccccc12 [N-Methyl-N-naphthalen-1-yl-N'-(3-nitro-phenyl)-guanidine]
IC50: 2640 nM

NC(=Nc1cccc2ccccc12)N1CCC(c2ccccc2)CC1 [N-Naphthalen-1-yl-4-phenyl-piperidine-1-carboxamidine]
IC50: 343 nM

Cc1cccc(NC(N)=Nc2cccc3ccccc23)c1 [N-Naphthalen-1-yl-N'-m-tolyl-guanidine]
IC50: 75 nM

NC(=Nc1cccc2ccccc12)N1CCCCCC1 [N-Naphthalen-1-yl-azepane-1-carboxamidine]
IC50: 1410 nM

NC(=Nc1cccc2ccccc12)N1CCCCC1 [N-Naphthalen-1-yl-piperidine-1-carboxamidine]
IC50: 1070 nM

— BindingDB's records for doi:10.1021/jm00028a009 (Cambridge Neuroscience, 1994)
